Species on record: Rattus norvegicus
Assay: DrugMatrix - Regimen: Daily Repeat
Assay type: toxicity, organism-based, Sprague-Dawley
Design: regimen Daily Repeat, gender Male, age 6-8 weeks
Conditions: in vivo, po, route oral GAVAGE, […]; for ABSOLUTE BASOPHIL / ABSOLUTE EOSINOPHIL / ABSOLUTE LYMPHOCYTE / ABSOLUTE MONOCYTE / ABSOLUTE SEGMENTED NEUTROPHIL / BASOPHIL / EOSINOPHIL / ERYTHROCYTE COUNT / HEMATOCRIT / HEMOGLOBIN / LEUKOCYTE COUNT / LYMPHOCYTE / MEAN CORPUSCULAR HEMOGLOBIN / MEAN CORPUSCULAR HEMOGLOBIN CONCENTRATION / MEAN CORPUSCULAR VOLUME / MONOCYTE / NEUTROPHIL / NUCLEATED RED BLOOD CELLS / PLATELET COUNT: tissue Blood; for ALANINE AMINOTRANSFERASE / ALBUMIN / ALKALINE PHOSPHATASE / ASPARTATE AMINOTRANSFERASE / BLOOD UREA NITROGEN / CARBON DIOXIDE / CHLORIDE / CHOLESTEROL / CREATINE PHOSPHOKINASE / CREATININE / GLUCOSE / LACTATE DEHYDROGENASE / LIPASE / PHOSPHORUS / POTASSIUM / SODIUM / TOTAL BILIRUBIN / TOTAL PROTEIN / URIC ACID: tissue Plasma
[1] = 4 mg/kg, 120 h, dose level Low, time 5 day
[2] = 63 mg/kg, 72 h, dose level High, time 3 day
[3] = 63 mg/kg, 120 h, dose level High, time 5 day

Structure (SMILES): CSc1ccc2c(c1)N(CCC1CCCCN1C)c1ccccc1S2 (centres undefined) [THIORIDAZINE]
- ABSOLUTE BASOPHIL [1]: 0 CELLS/uL
- ABSOLUTE EOSINOPHIL [1]: 185.33 CELLS/uL
- ABSOLUTE LYMPHOCYTE [1]: 12393.33 CELLS/uL
- ABSOLUTE MONOCYTE [1]: 143.33 CELLS/uL
- ABSOLUTE SEGMENTED NEUTROPHIL [1]: 1078 CELLS/uL
- BASOPHIL [1]: 0%
- EOSINOPHIL [1]: 1.33%
- ERYTHROCYTE COUNT [1]: 6.21 x10E6/uL
- HEMATOCRIT [1]: 39.13%
- HEMOGLOBIN [1]: 14.43 G/DL
- LEUKOCYTE COUNT [1]: 13.8 x10E3/uL
- LYMPHOCYTE [1]: 90%
- MEAN CORPUSCULAR HEMOGLOBIN [1]: 23.27 pg
- MEAN CORPUSCULAR HEMOGLOBIN CONCENTRATION [1]: 36.87 G/DL
- MEAN CORPUSCULAR VOLUME [1]: 63.13 fL
- MONOCYTE [1]: 1%
- NEUTROPHIL [1]: 7.67%
- NUCLEATED RED BLOOD CELLS [1]: 0.33 /100WBC
- PLATELET COUNT [1]: 1375 x10E3/uL
- ALANINE AMINOTRANSFERASE [1]: 42.67 u/L
- ALBUMIN [1]: 4.4 G/DL
- ALKALINE PHOSPHATASE [1]: 474.67 u/L
- ASPARTATE AMINOTRANSFERASE [1]: 94.67 u/L
- BLOOD UREA NITROGEN [1]: 17.67 mg/dL
- CARBON DIOXIDE [1]: 24.33 mmol/L
- CHLORIDE [1]: 103.67 MEQ/L
- CHOLESTEROL [1]: 48.67 mg/dL
- CREATINE PHOSPHOKINASE [1]: 499.33 u/L
- CREATININE [1]: 0.19 mg/dL
- GLUCOSE [1]: 188 mg/dL
- LACTATE DEHYDROGENASE [1]: 405 u/L
- LIPASE [1]: 9.33 u/L
- PHOSPHORUS [1]: 12.77 mg/dL
- POTASSIUM [1]: 5.85 MEQ/L
- SODIUM [1]: 141.6 MEQ/L
- TOTAL BILIRUBIN [1]: 0.1 mg/dL
- TOTAL PROTEIN [1]: 6.63 G/DL
- URIC ACID [1]: 2.07 mg/dL
- ABSOLUTE BASOPHIL [2]: 0 CELLS/uL
- ABSOLUTE EOSINOPHIL [2]: 50 CELLS/uL
- ABSOLUTE LYMPHOCYTE [2]: 8382 CELLS/uL
- ABSOLUTE MONOCYTE [2]: 59.67 CELLS/uL
- ABSOLUTE SEGMENTED NEUTROPHIL [2]: 575 CELLS/uL
- BASOPHIL [2]: 0%
- EOSINOPHIL [2]: 0.67%
- ERYTHROCYTE COUNT [2]: 5.2 x10E6/uL
- HEMATOCRIT [2]: 32.73%
- HEMOGLOBIN [2]: 12.73 G/DL
- LEUKOCYTE COUNT [2]: 9.07 x10E3/uL
- LYMPHOCYTE [2]: 92.33%
- MEAN CORPUSCULAR HEMOGLOBIN [2]: 24.53 pg
- MEAN CORPUSCULAR HEMOGLOBIN CONCENTRATION [2]: 38.9 G/DL
- MEAN CORPUSCULAR VOLUME [2]: 63.07 fL
- MONOCYTE [2]: 0.67%
- NEUTROPHIL [2]: 6.33%
- NUCLEATED RED BLOOD CELLS [2]: 0 /100WBC
- PLATELET COUNT [2]: 1257.67 x10E3/uL
- ALANINE AMINOTRANSFERASE [2]: 49.33 u/L
- ALBUMIN [2]: 4.2 G/DL
- ALKALINE PHOSPHATASE [2]: 379.33 u/L
- ASPARTATE AMINOTRANSFERASE [2]: 77.67 u/L
- BLOOD UREA NITROGEN [2]: 16 mg/dL
- CARBON DIOXIDE [2]: 28.67 mmol/L
- CHLORIDE [2]: 104.67 MEQ/L
- CHOLESTEROL [2]: 74.33 mg/dL
- CREATINE PHOSPHOKINASE [2]: 301.33 u/L
- CREATININE [2]: 0.2 mg/dL
- GLUCOSE [2]: 164 mg/dL
- LACTATE DEHYDROGENASE [2]: 99.33 u/L
- LIPASE [2]: 9 u/L
- PHOSPHORUS [2]: 10.9 mg/dL
- POTASSIUM [2]: 5.63 MEQ/L
- SODIUM [2]: 146.33 MEQ/L
- TOTAL BILIRUBIN [2]: 0.17 mg/dL
- TOTAL PROTEIN [2]: 6 G/DL
- URIC ACID [2]: 1.13 mg/dL
- ABSOLUTE BASOPHIL [3]: 0 CELLS/uL
- ABSOLUTE EOSINOPHIL [3]: 0 CELLS/uL
- ABSOLUTE LYMPHOCYTE [3]: 12825 CELLS/uL
- ABSOLUTE MONOCYTE [3]: 117.67 CELLS/uL
- ABSOLUTE SEGMENTED NEUTROPHIL [3]: 1290.67 CELLS/uL
- BASOPHIL [3]: 0%
- EOSINOPHIL [3]: 0%
- ERYTHROCYTE COUNT [3]: 5.78 x10E6/uL
- HEMATOCRIT [3]: 35.33%
- HEMOGLOBIN [3]: 13.37 G/DL
- LEUKOCYTE COUNT [3]: 14.23 x10E3/uL
- LYMPHOCYTE [3]: 90.33%
- MEAN CORPUSCULAR HEMOGLOBIN [3]: 23.13 pg
- MEAN CORPUSCULAR HEMOGLOBIN CONCENTRATION [3]: 37.87 G/DL
- MEAN CORPUSCULAR VOLUME [3]: 61.23 fL
- MONOCYTE [3]: 1%
- NEUTROPHIL [3]: 8.67%
- NUCLEATED RED BLOOD CELLS [3]: 0.33 /100WBC
- PLATELET COUNT [3]: 1309.67 x10E3/uL
- ALANINE AMINOTRANSFERASE [3]: 52.33 u/L
- ALBUMIN [3]: 4 G/DL
- ALKALINE PHOSPHATASE [3]: 520 u/L
- ASPARTATE AMINOTRANSFERASE [3]: 97.33 u/L
- BLOOD UREA NITROGEN [3]: 13.67 mg/dL
- CARBON DIOXIDE [3]: 23.33 mmol/L
- CHLORIDE [3]: 106.33 MEQ/L
- CHOLESTEROL [3]: 55 mg/dL
- CREATINE PHOSPHOKINASE [3]: 913 u/L
- CREATININE [3]: 0.19 mg/dL
- GLUCOSE [3]: 175.33 mg/dL
- LACTATE DEHYDROGENASE [3]: 124.33 u/L
- LIPASE [3]: 8.67 u/L
- PHOSPHORUS [3]: 11.6 mg/dL
- POTASSIUM [3]: 5.22 MEQ/L
- SODIUM [3]: 144.53 MEQ/L
- TOTAL BILIRUBIN [3]: 0.17 mg/dL
- TOTAL PROTEIN [3]: 5.87 G/DL
- URIC ACID [3]: 1.37 mg/dL

— ChEMBL document CHEMBL3885881, “DrugMatrix”
